# Experimental data as given in PMC3608422 (Xenobiotica; the fate of foreign compounds in biological …, 2011).
# Read-outs that look alike come from different tables or passages of the source.
# Columns and labels:
# [1] = target: mouse brain CB1Rs (mCB1Rs) (Mus musculus, UniProt P47746); experiment: biochemical; type: binding; conditions: for Selectivity: mCB1 versus hCB2 binding; for hCB2/mCB1 (Ki ratio): ratio of Ki hCB2 to Ki mCB1
# CB1Rs = conditions: read-out: affinity for CB1Rs; ref Mechoulam et al. 1995; cited from earlier work
# CB2Rs = conditions: read-out: affinity for CB2Rs; ref Mechoulam et al. 1995; cited from earlier work
# mCB1Rs = mCB1Rs (Mus musculus, UniProt P47746); type: biochemical; conditions: for effect on basal G-protein activity ([35S]GTPγS binding): 10 µM
# [2] = target: human CB2Rs (hCB2Rs) stably expressed in CHO cells (Homo sapiens, UniProt P34972); experiment: biochemical; type: binding
# [3] = co-administration with 30 µM of the compound
# [4] = co-administration with 10 µM of the compound
# Chain of human CB2Rs (hCB2Rs) stably expressed in CHO cells (P34972 whole entry): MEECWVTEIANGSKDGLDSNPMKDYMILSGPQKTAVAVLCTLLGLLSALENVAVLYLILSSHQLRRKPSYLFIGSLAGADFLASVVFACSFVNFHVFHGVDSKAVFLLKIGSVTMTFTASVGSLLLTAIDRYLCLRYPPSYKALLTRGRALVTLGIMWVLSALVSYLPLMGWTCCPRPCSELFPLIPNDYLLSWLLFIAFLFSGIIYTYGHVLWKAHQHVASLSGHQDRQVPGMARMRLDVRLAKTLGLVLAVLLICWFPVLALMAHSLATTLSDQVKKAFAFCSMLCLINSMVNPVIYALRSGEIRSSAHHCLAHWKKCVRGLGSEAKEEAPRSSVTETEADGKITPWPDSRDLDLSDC
# Chain of mCB1Rs (P47746 whole entry): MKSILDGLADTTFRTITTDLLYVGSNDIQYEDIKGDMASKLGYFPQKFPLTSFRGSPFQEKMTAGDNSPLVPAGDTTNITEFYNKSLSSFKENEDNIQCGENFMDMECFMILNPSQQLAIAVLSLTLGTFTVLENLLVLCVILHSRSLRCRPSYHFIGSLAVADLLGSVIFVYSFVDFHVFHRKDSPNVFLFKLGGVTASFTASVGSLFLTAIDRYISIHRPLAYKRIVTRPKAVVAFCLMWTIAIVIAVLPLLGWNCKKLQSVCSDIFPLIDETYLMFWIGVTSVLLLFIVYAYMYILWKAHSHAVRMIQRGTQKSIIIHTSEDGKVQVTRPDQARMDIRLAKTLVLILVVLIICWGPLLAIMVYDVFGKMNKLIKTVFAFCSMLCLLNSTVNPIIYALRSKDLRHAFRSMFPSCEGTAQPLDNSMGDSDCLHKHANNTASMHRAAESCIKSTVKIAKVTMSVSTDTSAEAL
# Chain of mouse brain CB1Rs (mCB1Rs) (P47746 whole entry): as above
Structure (SMILES),Ki [1],Ki [2],effect on basal G-protein activity ([35S]GTPγS binding) (mCB1Rs; mouse brain membranes),Selectivity [1],hCB2/mCB1 (Ki ratio) [1],also measured
"Oc1ccc(/C=C/c2cc(O)cc(O)c2)cc1 [tRes, trans-3,5,4′-trihydroxystilbene, reference compound]",14.3 ± 1.6 µM,–,–,–,–,–
CCCCC/C=C\C/C=C\C/C=C\C/C=C\CCCC(=O)OC(CO)CO [2-arachidonoylglycerol],–,–,–,–,–,Ki (CB1Rs): ~500 nM; Ki (CB2Rs): ~1500 nM
"CC1=CC[C@@H]2[C@@H](C1)c1c(O)cc(CC#CCCCNS(C)(=O)=O)cc1OC2(C)C [O-2050, reference compound]",–,–,–,–,–,"effect on G-protein activity ([35S]GTPγS binding) (mCB1Rs; mouse brain membranes, 1 µM): produced no effect"
"CC(C)C=Cc1c(O)cc(/C=C/c2ccc(O)cc2)cc1O [tA3, trans-4-(3-methyl-1-butenyl)-3,5,4′-trihydroxystilbene]",17.5 ± 3.4 µM,11.3 ± 0.6 µM,have little effect,Non-selective,0.6,"ED50 of CB1R agonist CP-55,940 to activate G-proteins on co-administration (mCB1Rs; [3]): 127 nM; fold increase (shift-to-the-right) in ED50 of CP-55,940 (mCB1Rs; [3]): 30 fold"
"CC(C)C=Cc1c(O)cc(/C=C/c2ccc(O)c(O)c2)cc1O [tA1, trans-4-(3-methyl-1-butenyl)-3,5,3′,4′-tetrahydroxystilbene]",5.6 ± 0.4 µM,12.6 ± 1.7 µM,markedly reduce,Non-selective,2.3,"ED50 of CB1R agonist CP-55,940 to activate G-proteins on co-administration (mCB1Rs; [4]): 28 nM; fold increase (shift-to-the-right) in ED50 of CP-55,940 (mCB1Rs; [4]): 7 fold; maximal response produced by CP-55,940 on co-administration (mCB1Rs; [4]): 0.22 ± 0.04 pmol/mg protein; attenuation by O-2050 of the reduction of basal G-protein activity (mCB1Rs; compound 10 µM co-incubated with neutral CB1R antagonist O-2050 1 µM): did not significantly attenuate; glucuronidation by UGT1A1 (UGT1A1): no visible glucuronidation; concentration at which substrate inhibition is seen (UGT1A9): > 500 µM"
"Oc1cc(O)cc(/C=C/c2ccc(O)c(O)c2)c1 [tPice, trans 3,5,3′,4′-tetrahydroxystilbene, reference compound]",11.7 ± 1 µM,114 ± 7.8 µM,markedly reduce,CB1,9.7,–
